Test systems include SK-OV-3 ovarian; HS 578T breast; OVCAR-3 ovarian; UO-31 renal; BT-549 breast; MALME-3M melanoma; LOX IMVI melanoma; M14 melanoma; RXF 393 renal; HCC-2998 colon; 786-0 renal.
What all share (assay): inhibition of tumour cell growth, NCI panel, 48 h

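96-well plates; 48 h exposure; 5 concentrations. Endpoints by linear interpolation between flanking doses. Not reached: highest tested concentration assigned. Definition used: TGI = concentration required for complete inhibition of growth.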 Some results are limits rather than exact numbers.

With `c1cc(CSc2ncnc3nc[nH]c23)ccn1`, the TGI with SK-OV-3 ovarian, in the assay with HS 578T breast, with OVCAR-3 ovarian, in the assay on UO-31 renal, in the assay with BT-549 breast and with MALME-3M melanoma was greater than 100 µM throughout. The TGI in the assay on LOX IMVI melanoma, in the assay with M14 melanoma, with RXF 393 renal, in the assay with HCC-2998 colon and in the assay with 786-0 renal was greater than 100 µM each time.

Regarding `CC(=O)Oc1cc(-c2oc3cc(OC(C)=O)c(C4OC(CO)C(O)C(O)C4O)c(OC(C)=O)c3c(=O)c2O)c(OC(C)=O)cc1O` (configuration not stated), the TGI in the assay on SK-OV-3 ovarian, in the assay on HS 578T breast, with OVCAR-3 ovarian, in the assay with UO-31 renal, in the assay on BT-549 breast and in the assay with MALME-3M melanoma was greater than 100 µM throughout. In addition, the TGI in the assay with LOX IMVI melanoma, in the assay with M14 melanoma, with RXF 393 renal, in the assay on HCC-2998 colon and in the assay on 786-0 renal was greater than 100 µM in each case.

In the case of `C/C(=N\O)c1cccc(Nc2c3ccccc3nc3occc23)c1`, the TGI with SK-OV-3 ovarian is 36.8 µM; in the assay on HS 578T breast it was 55.3 µM; in the assay on OVCAR-3 ovarian, 80.1 µM; in the assay on UO-31 renal, greater than 100 µM; with BT-549 breast, 24.1 µM; in the assay with MALME-3M melanoma, 9.7 µM. In addition, the TGI was greater than 100 µM in the assay on LOX IMVI melanoma, greater than 100 µM in the assay on M14 melanoma, 52.4 µM in the assay on HCC-2998 colon and 28.3 µM in the assay on 786-0 renal.

Regarding `CN(/N=C/C=N/N(C)C1=NCCN1)C1=NCCN1`, the TGI in the assay on SK-OV-3 ovarian, with HS 578T breast, in the assay on OVCAR-3 ovarian, with UO-31 renal, in the assay with BT-549 breast and in the assay with MALME-3M melanoma was greater than 100 µM in each case. Besides, the TGI in the assay on LOX IMVI melanoma, with M14 melanoma, in the assay on HCC-2998 colon and in the assay on 786-0 renal was greater than 100 µM throughout.

Take `CN(C)NC1=NS(=O)(=O)c2cc3c(=O)n(C)[nH]c3cc2S1`: the TGI in the assay with SK-OV-3 ovarian, with HS 578T breast, with OVCAR-3 ovarian, with UO-31 renal, with BT-549 breast and in the assay with MALME-3M melanoma was greater than 10 µM throughout. Further, the TGI with LOX IMVI melanoma, in the assay on M14 melanoma, in the assay with RXF 393 renal, with HCC-2998 colon and with 786-0 renal was greater than 10 µM throughout.

In the case of `S=C(S)NCCN1CCNCC1`, the TGI was greater than 100 µM with SK-OV-3 ovarian; greater than 100 µM with HS 578T breast; 63.8 µM with OVCAR-3 ovarian; greater than 100 µM in the assay on UO-31 renal; greater than 100 µM in the assay with BT-549 breast; 82.5 µM with MALME-3M melanoma. Moreover, the TGI was greater than 100 µM in the assay with LOX IMVI melanoma; greater than 100 µM in the assay with M14 melanoma; 64.3 µM in the assay with RXF 393 renal; 68.7 µM with HCC-2998 colon; 77 µM in the assay on 786-0 renal.

Take `O=C(CCCn1ccnc1[N+](=O)[O-])NCCn1cnc([N+](=O)[O-])n1`: the TGI in the assay on SK-OV-3 ovarian, in the assay on HS 578T breast, in the assay with OVCAR-3 ovarian, with UO-31 renal, with BT-549 breast and in the assay with MALME-3M melanoma was greater than 100 µM each time. For the same compound, the TGI in the assay on LOX IMVI melanoma, with M14 melanoma, with RXF 393 renal and in the assay with 786-0 renal was greater than 100 µM in each case.

Turning to `COc1ccc(Nc2cc(=O)[nH]c(=O)[nH]2)cc1`, the TGI in the assay with HS 578T breast, in the assay with OVCAR-3 ovarian, in the assay with UO-31 renal, with BT-549 breast, with MALME-3M melanoma and with LOX IMVI melanoma was greater than 100 µM in each case. The TGI with M14 melanoma, in the assay with RXF 393 renal, with HCC-2998 colon and in the assay on 786-0 renal was greater than 100 µM each time.

With `CC(C)C(/C=C/c1ccc(Cl)cc1)=N\NC(=O)N/N=C(/C=C/c1ccc(Cl)cc1)C(C)C`, the TGI in the assay on SK-OV-3 ovarian was 93.1 µM; in the assay on HS 578T breast, 50.8 µM; with OVCAR-3 ovarian, 35.8 µM; with UO-31 renal, greater than 100 µM; in the assay with BT-549 breast, 97.9 µM; in the assay with MALME-3M melanoma, greater than 100 µM. Further, the TGI was 60 µM in the assay with M14 melanoma, 76.9 µM in the assay on RXF 393 renal, greater than 100 µM in the assay with HCC-2998 colon and 33.5 µM in the assay on 786-0 renal.

On to `OC(Cc1cc(CC(O)(C(F)(F)F)C(F)(F)F)nc(CC(O)(C(F)(F)F)C(F)(F)F)c1)(C(F)(F)F)C(F)(F)F`, for which the TGI in the assay on SK-OV-3 ovarian is greater than 10 µM; in the assay on HS 578T breast it was 4.63 µM; in the assay on OVCAR-3 ovarian it was 1.96 µM; in the assay on BT-549 breast, 6.1 µM; in the assay with MALME-3M melanoma, 7.96 µM; in the assay with LOX IMVI melanoma it was 1.34 µM. Also, the TGI was 8.25 µM in the assay with M14 melanoma, 4.57 µM in the assay on RXF 393 renal, greater than 10 µM in the assay on HCC-2998 colon and 6.34 µM with 786-0 renal.

Regarding `O=C(CC(=O)N1N=C(N(c2ccccc2)c2ccccc2)CC1c1ccccc1)Nc1cccc(Cl)c1` (configuration not stated), the TGI in the assay with SK-OV-3 ovarian, with HS 578T breast, in the assay on OVCAR-3 ovarian, in the assay with UO-31 renal, in the assay on BT-549 breast and in the assay with M14 melanoma was greater than 100 µM each time. Moreover, the TGI with RXF 393 renal, in the assay on HCC-2998 colon and with 786-0 renal was greater than 100 µM throughout.

Take `COc1ccc(C=O)cc1OS(=O)(=O)C(F)(F)C(F)(F)C(F)(F)C(F)(F)F`: the TGI in the assay on SK-OV-3 ovarian is greater than 90.2 µM; in the assay with HS 578T breast it was 68.8 µM; with OVCAR-3 ovarian, greater than 69.2 µM; in the assay with UO-31 renal, greater than 60.9 µM; in the assay on BT-549 breast, greater than 100 µM; in the assay with MALME-3M melanoma, greater than 69 µM. The TGI in the assay with LOX IMVI melanoma is 41.9 µM; in the assay with M14 melanoma it was greater than 80.5 µM; with RXF 393 renal it was 59.8 µM; in the assay with 786-0 renal, greater than 84.1 µM.

Turning to `CN(C)CC(C)(C)CN1c2ccccc2Sc2ccccc21`, the TGI in the assay with SK-OV-3 ovarian was found to be 26 µM; with HS 578T breast it was 28.5 µM; with OVCAR-3 ovarian, 24.3 µM; in the assay with BT-549 breast, 27.6 µM; with MALME-3M melanoma, 27.9 µM; with LOX IMVI melanoma, 26.4 µM. Also, the figures for the TGI in the assay with M14 melanoma, in the assay with RXF 393 renal and in the assay with 786-0 renal were 22.4 µM, 13 µM and 25.5 µM, respectively.

Source of the values: PubChem BioAssay (NCI).
